Assay results reported in ChEMBL document CHEMBL5108021, “Discovery of 3-pyrazolyl-substituted pyrazolo[1,5-a]pyrimidine derivatives as potent TRK inhibitors to overcome clinically acquired resistance” (Eur J Med Chem, 2022).

Key:
BaF3 [1] = assay: animal or person; conditions: Mus musculus, BaF3, po, read-out: TGI
BaF3 [2] = assay: Antitumor activity against mouse BaF3 cells expressing […]-wild type TRKA xenografted in BALB/c mouse assessed as inhibition of tumor growth at 30 mg/kg, po bid for 11 to 14 days by microcaliper analysis; format: functional; conditions: time 11-14 day, read-out: TGI

Row | SMILES | inhibition in vivo at 100 mg/kg (BaF3 [1]) [%] | inhibition in vivo at 30 mg/kg (BaF3 [2]) [%]
1 | C[C@@H]1CCc2ncc(F)cc2[C@H]2CCCN2c2ccn3ncc(c3n2)C(=O)N1 [SELITRECTINIB] | 64 | –
2 | O=C(Nc1cnn2ccc(N3CCC[C@@H]3c3cc(F)ccc3F)nc12)N1CC[C@H](O)C1 [LAROTRECTINIB] | – | 74
